Here are results for 1 molecule from article PMC4929566, “The metabolome of [2-^14C](−)-epicatechin in humans: implications for the assessment of efficacy, safety, and mechanisms of action of polyphenolic bioactives” (Scientific Reports, 2016).

The nature of data set [1]: Adverse events and clinical/laboratory evaluation in the 14C-EC ADME study. The class given is in vivo, humans. To be noted: human. The protocol:
The study was a single-center, open-label, and non-randomized study with two distinct elements: a run-in phase to establish a more defined dietary background of dietary flavanols and procyanidins and the subsequent ^14C-EC ADME study (Fig. 1B). Participants (n = 12) were enrolled in the run-in phase (day –17 to day –4) and asked to supplement their daily diet for 14 days with a commercially available flavanol-containing cocoa-based drink (250 mg cocoa flavanols; 40 mg of EC). This was followed by a 4-day period (day –4 to 0) of a low-flavanol diet. One day (study day -1) prior to the initialization of the ^14C-EC ADME study, all eligible participants were accommodated under controlled conditions at a metabolic research facility (Covance Clinical Pharmacology Inc., Wisconsin) until completion of the study. Based on the compliance of the first part of the study, 8 participants were selected to participate in the ^14C-EC ADME study. During the ^14C-EC ADME study (Fig. 1B.), volunteers received a low-flavanol, standardized high-fiber diet, and were encouraged to maintain an adequate level of hydration (water ad libitum). Volunteers were asked to fast for 8 h before the initiation of the study and for at least 4 h after the intake of the ^14C-EC test drink (water ad libitum). Venous blood samples were taken using Vacutainer collection tubes, containing potassium EDTA at 0 h (just prior to ^14C-EC ingestion), and at 0.25, 0.5, 1, 1.5, 2, 2.5, 3, 4, 6, 8, 10, 12, 16, 24, 36, and 48 h after test drink consumption. Plasma was obtained by whole blood centrifugation at 2000 × g for 15 min at 5 °C, separated into aliquots and stored at −80 °C until analysis. All urine and feces from the time just prior to the consumption of the test drink were collected at different time intervals for radioactivity and metabolite profiling. Clinical parameters and laboratory evaluations of participants were assessed at screening, on study day –1, and after completing the study, as detailed in Supplementary Methods. […]

A short description of data set [2]: SREM profile in plasma after intragastric 14C-EC, rat. The class given is in vivo, Sprague-Dawley rats. Particulars: 30 min after 2 mg/kg BW intragastric 14C-EC. The protocol: To assess the profile of SREMs in rodents, Sprague-Dawley rats (male, 9–10 week old, 270 ± 16 g of BW) and C57BL/6 mice (20 ± 1 g) were administered by gavage 2 mg/kg BW of ^14C-EC (corresponding to ≈10.6 μCi/rat and 6.7 μCi/mouse). Blood samples were collected 30 min after administration. Plasma was obtained by centrifugation at 4 °C for 15 min at 1800xg, separated in aliquots and analyzed by HPLC as described previously[18] with an on-line radioactivity detector (Radiomatic 610TR Flow System Analyzer, PerkinElmer, Inc., Waltham, Mass).

Data set [3] in a line: Elimination and mass balance of radioactivity in urine and feces. The class given is in vivo, humans. To be noted: human. The protocol:
The study was a single-center, open-label, and non-randomized study with two distinct elements: a run-in phase to establish a more defined dietary background of dietary flavanols and procyanidins and the subsequent ^14C-EC ADME study (Fig. 1B). Participants (n = 12) were enrolled in the run-in phase (day –17 to day –4) and asked to supplement their daily diet for 14 days with a commercially available flavanol-containing cocoa-based drink (250 mg cocoa flavanols; 40 mg of EC). This was followed by a 4-day period (day –4 to 0) of a low-flavanol diet. One day (study day -1) prior to the initialization of the ^14C-EC ADME study, all eligible participants were accommodated under controlled conditions at a metabolic research facility (Covance Clinical Pharmacology Inc., Wisconsin) until completion of the study. Based on the compliance of the first part of the study, 8 participants were selected to participate in the ^14C-EC ADME study. During the ^14C-EC ADME study (Fig. 1B.), volunteers received a low-flavanol, standardized high-fiber diet, and were encouraged to maintain an adequate level of hydration (water ad libitum). Volunteers were asked to fast for 8 h before the initiation of the study and for at least 4 h after the intake of the ^14C-EC test drink (water ad libitum). Venous blood samples were taken using Vacutainer collection tubes, containing potassium EDTA at 0 h (just prior to ^14C-EC ingestion), and at 0.25, 0.5, 1, 1.5, 2, 2.5, 3, 4, 6, 8, 10, 12, 16, 24, 36, and 48 h after test drink consumption. Plasma was obtained by whole blood centrifugation at 2000 × g for 15 min at 5 °C, separated into aliquots and stored at −80 °C until analysis. All urine and feces from the time just prior to the consumption of the test drink were collected at different time intervals for radioactivity and metabolite profiling. Clinical parameters and laboratory evaluations of participants were assessed at screening, on study day –1, and after completing the study, as detailed in Supplementary Methods.
The 50-mL drink consisted of an aqueous solution of ^14C-EC (specific activity 14.5 μCi μmol^−1) and delivered 60 mg (207 μmol) of EC and 300 μCi (660 × 10^6 dpm) of radioactivity. The drink was prepared one day before consumption to verify correctness of composition and stability. Volunteers received the ^14C-EC test drink (50 mL), followed by 3 × 50 mL of water that was used to rinse the test drink container, and 40 mL of water. The radioactivity remaining in the test drink containers was measured, and the residual radioactivity recovered from each container was subtracted from the amount administered to the corresponding volunteer.
Radioactivity in aliquots of plasma and urine was measured by liquid scintillation counting. Blood and feces were dried and oxidized by combustion using a 307 Sample Oxidizer (Packard Instrument Company, Meriden, NH) before being analyzed by liquid scintillation counting.

In the case of `Oc1cc(O)c2c(c1)O[C@H](c1ccc(O)c(O)c1)[C@H](O)C2` [^14C-EC, [2-^14C](−)-epicatechin], in data set [1], the “Severity of reported adverse events” value is recorded as “all reported adverse events were mild in severity”. Also, the “Number of adverse events reported” value in data set [1] (reported by 3 different participants, none related to study treatment) is recorded as 6. For the same molecule, in data set [1] (single oral 60 mg, 300 μCi), the “Adverse events related to the study treatment” value is given as “No adverse events related to the study treatment were recorded”; the “Clinical changes in laboratory evaluations, physical examinations and 12-lead electrocardiograms” value was “no significant clinical changes”. Also, the Detection in plasma entry in data set [2] is “No unmetabolized EC and sulfated SREMs were detected”. Moreover, in data set [3] (oral 60 mg 14C-EC), the “Accumulated radioactivity voided in feces, of ingested 14C-EC” value is given as 12 ± 3%; the “Radioactivity in urine and feces combined, of intake” value stood at 95 ± 1%; the “Radioactivity not recovered in the collected samples” value worked out at 5 ± 1%. Besides, the “Accumulated radioactivity eliminated in urine, of amount ingested” value in data set [3] (oral 60 mg 14C-EC, liquid scintillation counting, 0–48 h) was 82 ± 5%. For the same molecule, the “Ingested EC absorbed” value in data set [3] (oral 60 mg, n=8) came out at 82 ± 5%.
